Experimental data as given in patent US5854204A, “Aβ peptides that modulate β-amyloid aggregation” (priority 1996, dated 1998).
Read-outs that look alike come from different tables or passages of the source. Numbered stars: 1 amine (or outer) side, 2 acyl side, 3 side chain; on linkers, the order of the positions; unused ones are H or OH. Square brackets hold non-standard residues; d marks the D form. Ends that are not written are not given here. Peptide text beside a SMILES is read from it. * marks the point of attachment. Cholyl = C[C@H](CCC(=O)*)[C@H]1CC[C@H]2[C@@H]3[C@H](O)C[C@@H]4C[C@H](O)CC[C@]4(C)[C@H]3C[C@H](O)[C@]12C; X2 = O=C(C1(O)C[C@H](O)[C@@H](N[*:1])[C@H]([C@H](O)[C@H](O)CO)O1)[*:2]; Tyr(3-I) = N[C@@H](Cc1ccc(O)c(I)c1)C(=O)O

Experiments:
[1] = molecular target: T1, Aβ1-40 (Homo sapiens, UniProt P05067);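 note: Aβ nucleation assay tracking fiber polymerization from monomer by turbidity (light scattering), shaken continuously in 96-well plates, read every 15 min over 5 h, compared with compound-free control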
From the text: (§1) The nucleation assay is employed to determine the ability of test compounds to alter (e.g. inhibit) the early events in formation of β-AP fibers from monomeric β-AP. […] The time delay before polymerization of β-AP monomer can be quantified as well as the extent of formation of insoluble fiber by light scattering (turbidity). Polymerization reaches equilibrium when the maximum turbidity reaches a plateau. […] The threshold of sensitivity for the measurement of turbidity is in the range of 15-20 μM β-AP. […] This assay can be performed using stirring or shaking to accelerate polymerization, thereby increasing the speed of the assay. Moreover the assay can be adapted to a 96-well plate format to screen multiple compounds.
(§2) HFIP-solubilized peptide is sonicated in a waterbath sonicator for 5 min at highest setting, then evaporated to dryness under a stream of argon. […] Test compounds are dissolved in DMSO at a 100× concentration. […] Ten microliters of the mixture is then added to the bottom of a well of a Corning Costar ultra low binding 96-well plate (Corning Costar, Cambridge Mass.; cat. No. 2500). […] The plate is then returned to the shaker and shaken continuously for 5 hours. Turbidity readings are taken at 15 minute intervals.
(§3) Accordingly a fold increase in lag time of 1.0 indicates no change in lag time, whereas numbers >1.0 indicate an increase in lag time. The "% inhibition of plateau", which is a measure of the ability of the compound to decrease the total amount of aggregation, refers to the reduction of the final turbidity in the presence of the test compound expressed as a percent of the control without the test compound.

[2] = molecular target: T1, Aβ1-40; test: biochemical; conditions: read-out: % Inucl'n (percent reduction in maximum turbidity)
From the text: as §1, §2, §3

[3] = Table VI, unmodified peptides, 100 mole %

T1 sequence (P05067 672-711): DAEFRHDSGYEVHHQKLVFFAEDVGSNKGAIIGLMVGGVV

Molecule | % Inhibition of Plateau [1] | Fold Increase in Lag Time [1, 3] | inhibition at 100 % [2] [%] | also measured
CC[C@H](C)[C@H](NC(=O)[C@H](C)NC(=O)CNC(=O)[C@H](CCCCN)NC(=O)[C@H](CC(N)=O)NC(=O)[C@H](CO)NC(=O)[C@H](Cc1ccccc1)NC(=O)[C@H](Cc1ccccc1)NC(=O)[C@@H](NC(=O)[C@H](CC(C)C)NC(=O)[C@H](CCCCN)NC(=O)[C@H](CCC(N)=O)NC(=O)[C@H](Cc1c[nH]cn1)NC(=O)[C@H](Cc1c[nH]cn1)NC(=O)[C@@H](NC(=O)[C@H](CCC(=O)O)NC(=O)[C@H](Cc1ccc(O)cc1)NC(=O)CNC(=O)[C@H](CO)NC(=O)[C@H](CC(=O)O)NC(=O)[C@H](Cc1c[nH]cn1)NC(=O)[C@H](CCCNC(=N)N)NC(=O)[C@H](Cc1ccccc1)NC(=O)[C@H](CCC(=O)O)NC(=O)[C@H](C)NC(=O)[C@@H](N)CC(=O)O)C(C)C)C(C)C)C(=O)N[C@H](C(=O)NCC(=O)N[C@@H](CC(C)C)C(=O)N[C@@H](CCSC)C(=O)N[C@H](C(=O)NCC(=O)NCC(=O)N[C@H](C(=O)N[C@H](C(=O)O)C(C)C)C(C)C)C(C)C)[C@@H](C)CC [PPI-249, Aβ1-20, 26-40 (Δ21-25)] | ~ 0% | 2.37 fold |  | 
CC[C@H](C)[C@H](NC(=O)[C@H](C)NC(=O)CNC(=O)[C@H](CCCCN)NC(=O)[C@H](CC(N)=O)NC(=O)[C@H](CO)NC(=O)CNC(=O)[C@@H](NC(=O)[C@H](CC(=O)O)NC(=O)[C@H](CCC(=O)O)NC(=O)[C@H](C)NC(=O)[C@H](CCC(N)=O)NC(=O)[C@H](Cc1c[nH]cn1)NC(=O)[C@H](Cc1c[nH]cn1)NC(=O)[C@@H](NC(=O)[C@H](CCC(=O)O)NC(=O)[C@H](Cc1ccc(O)cc1)NC(=O)CNC(=O)[C@H](CO)NC(=O)[C@H](CC(=O)O)NC(=O)[C@H](Cc1c[nH]cn1)NC(=O)[C@H](CCCNC(=N)N)NC(=O)[C@H](Cc1ccccc1)NC(=O)[C@H](CCC(=O)O)NC(=O)[C@H](C)NC(=O)[C@@H](N)CC(=O)O)C(C)C)C(C)C)C(=O)N[C@H](C(=O)NCC(=O)N[C@@H](CC(C)C)C(=O)N[C@@H](CCSC)C(=O)N[C@H](C(=O)NCC(=O)NCC(=O)N[C@H](C(=O)N[C@H](C(=O)O)C(C)C)C(C)C)C(C)C)[C@@H](C)CC [PPI-250, Aβ1-15, 21-40 (Δ16-20)] | ~ 0% | 1.55 fold |  | 
CC[C@H](C)[C@H](NC(=O)[C@H](C)NC(=O)CNC(=O)[C@H](CCCCN)NC(=O)[C@H](CC(N)=O)NC(=O)[C@H](CO)NC(=O)CNC(=O)[C@@H](NC(=O)[C@H](CC(=O)O)NC(=O)[C@H](CCC(=O)O)NC(=O)[C@H](C)NC(=O)[C@H](Cc1ccccc1)NC(=O)[C@H](Cc1ccccc1)NC(=O)[C@@H](NC(=O)[C@H](CC(C)C)NC(=O)[C@H](CCCCN)NC(=O)[C@H](Cc1ccc(O)cc1)NC(=O)CNC(=O)[C@H](CO)NC(=O)[C@H](CC(=O)O)NC(=O)[C@H](Cc1c[nH]cn1)NC(=O)[C@H](CCCNC(=N)N)NC(=O)[C@H](Cc1ccccc1)NC(=O)[C@H](CCC(=O)O)NC(=O)[C@H](C)NC(=O)[C@@H](N)CC(=O)O)C(C)C)C(C)C)C(=O)N[C@H](C(=O)NCC(=O)N[C@@H](CC(C)C)C(=O)N[C@@H](CCSC)C(=O)N[C@H](C(=O)NCC(=O)NCC(=O)N[C@H](C(=O)N[C@H](C(=O)O)C(C)C)C(C)C)C(C)C)[C@@H](C)CC [PPI-251, Aβ1-10, 16-40 (Δ11-15)] | ~ 0% | ~ 1.2 fold |  | 
C[C@H](CCC(=O)O)[C@H]1CC[C@H]2[C@@H]3[C@H](O)C[C@@H]4C[C@H](O)CC[C@]4(C)[C@H]3C[C@H](O)[C@]12C [PPI-293, Cholic acid, reference compound] |  |  | 0 | inhibitory activity on Aβ aggregation [1]: had no effect on Aβ aggregation
CC(C)C[C@H](NC(=O)[C@H](CCCCN)NC(=O)[C@H](CCC(N)=O)NC(=O)[C@H](Cc1c[nH]cn1)NC(=O)CC[C@@H](C)[C@H]1CC[C@H]2[C@@H]3[C@H](O)C[C@@H]4C[C@H](O)CC[C@]4(C)[C@H]3C[C@H](O)[C@]12C)C(=O)N[C@H](C(=O)N[C@@H](Cc1ccccc1)C(=O)N[C@@H](Cc1ccccc1)C(N)=O)C(C)C [PPI-315] (Cholyl-HQKLVFF-NH2) |  |  |  | inhibition at 33 % [2]: 5%
CC(=O)N[C@H]1[C@H]([C@H](O)[C@H](O)CO)OC(O)(C(=O)N[C@@H](Cc2c[nH]cn2)C(=O)N[C@@H](CCC(N)=O)C(=O)N[C@@H](CCCCN)C(=O)N[C@@H](CC(C)C)C(=O)N[C@H](C(=O)N[C@@H](Cc2ccccc2)C(=O)N[C@@H](Cc2ccccc2)C(N)=O)C(C)C)C[C@@H]1O (stereo partly shown) [PPI-316] (Ac-[X2]HQKLVFF-NH2) |  |  | -15 | 
CC(C)C[C@H](NC(=O)[C@H](CCCCN)NC(=O)[C@H](CCC(N)=O)NC(=O)[C@H](Cc1c[nH]cn1)NC(=O)[C@H](Cc1c[nH]cn1)NC(=O)[C@@H](NC(=O)[C@H](CCC(=O)O)NC(=O)[C@H](Cc1ccc(O)cc1)NC(=O)CNC(=O)[C@H](CO)NC(=O)[C@H](CC(=O)O)NC(=O)[C@H](Cc1c[nH]cn1)NC(=O)CC[C@@H](C)[C@H]1CC[C@H]2[C@@H]3[C@H](O)C[C@@H]4C[C@H](O)CC[C@]4(C)[C@H]3C[C@H](O)[C@]12C)C(C)C)C(=O)N[C@H](C(=O)N[C@@H](Cc1ccccc1)C(N)=O)C(C)C [PPI-321] (Cholyl-HDSGYEVHHQKLVF-NH2) |  |  |  | inhibitory activity on Aβ aggregation [1]: loss of inhibitory activity; Fold Increase in Lag Time ([1]; Table III, 33 mole %): 1.4 fold; Fold Increase in Lag Time ([1]; Table IV, 100 mole %): 1.2 fold
CC(C)[C@H](NC(=O)[C@H](CCC(=O)O)NC(=O)[C@H](Cc1ccc(O)cc1)NC(=O)CNC(=O)[C@H](CO)NC(=O)[C@H](CC(=O)O)NC(=O)[C@H](Cc1c[nH]cn1)NC(=O)CC[C@@H](C)[C@H]1CC[C@H]2[C@@H]3[C@H](O)C[C@@H]4C[C@H](O)CC[C@]4(C)[C@H]3C[C@H](O)[C@]12C)C(=O)N[C@@H](Cc1c[nH]cn1)C(=O)N[C@@H](Cc1c[nH]cn1)C(N)=O [PPI-331] (Cholyl-HDSGYEVHH-NH2) | 29% |  |  | 
C[C@H](CCC(=O)N[C@@H](Cc1c[nH]cn1)C(=O)N[C@@H](CC(=O)O)C(=O)N[C@@H](CO)C(=O)NCC(=O)N[C@@H](Cc1ccc(O)cc1)C(N)=O)[C@H]1CC[C@H]2[C@@H]3[C@H](O)C[C@@H]4C[C@H](O)CC[C@]4(C)[C@H]3C[C@H](O)[C@]12C [PPI-339] (Cholyl-HDSGY-NH2) | 13% |  |  | 
CC(C)C[C@H](NC(=O)[C@H](CCCCN)NC(=O)[C@H](CCC(N)=O)NC(=O)[C@H](Cc1c[nH]cn1)NC(=O)[C@H](Cc1c[nH]cn1)NC(=O)[C@@H](NC(=O)CC[C@@H](C)[C@H]1CC[C@H]2[C@@H]3[C@H](O)C[C@@H]4C[C@H](O)CC[C@]4(C)[C@H]3C[C@H](O)[C@]12C)C(C)C)C(=O)N[C@H](C(=O)N[C@@H](Cc1ccccc1)C(=O)N[C@@H](Cc1ccccc1)C(=O)O)C(C)C [PPI-346] (Cholyl-VHHQKLVFF-OH) | ~ 0% |  |  | 
CC(C)C[C@H](NC(=O)[C@H](CCCCN)NC(=O)[C@H](CCC(N)=O)NC(=O)CC[C@@H](C)[C@H]1CC[C@H]2[C@@H]3[C@H](O)C[C@@H]4C[C@H](O)CC[C@]4(C)[C@H]3C[C@H](O)[C@]12C)C(=O)N[C@H](C(=O)N[C@@H](Cc1ccccc1)C(=O)O)C(C)C [PPI-366] (Cholyl-QKLVF-OH) | ~ 0% |  |  | 
CC(C)C[C@H](NC(=O)CC[C@@H](C)[C@H]1CC[C@H]2[C@@H]3[C@H](O)C[C@@H]4C[C@H](O)CC[C@]4(C)[C@H]3C[C@H](O)[C@]12C)C(=O)N[C@H](C(=O)N[C@@H](Cc1ccccc1)C(=O)N[C@@H](C)C(=O)N[C@@H](C)C(=O)O)C(C)C [PPI-391] (Cholyl-LVFAA-OH) |  |  | 40 | 
CC(C)C[C@H](NC(=O)CC[C@@H](C)[C@H]1CC[C@H]2[C@@H]3[C@H](O)C[C@@H]4C[C@H](O)CC[C@]4(C)[C@H]3C[C@H](O)[C@]12C)C(=O)N[C@H](C(=O)N[C@@H](Cc1ccc(O)c(I)c1)C(=O)N[C@@H](Cc1ccccc1)C(=O)N[C@@H](C)C(=O)O)C(C)C [PPI-396] (Cholyl-LV[Tyr(3-I)]FA-OH) |  |  | 100 | 
CC(C)C[C@H](NC(=O)CC[C@@H](C)[C@H]1CC[C@H]2[C@@H]3[C@H](O)C[C@@H]4C[C@H](O)CC[C@]4(C)[C@H]3C[C@H](O)[C@]12C)C(=O)N[C@H](C(=O)N[C@@H](Cc1ccccc1)C(=O)N[C@@H](Cc1ccc(O)c(I)c1)C(=O)N[C@@H](C)C(=O)O)C(C)C [PPI-397] (Cholyl-LVF[Tyr(3-I)]A-OH) |  |  | 95 | 
CC(C)[C@H](NC(=O)[C@H](C)NC(=O)CC[C@@H](C)[C@H]1CC[C@H]2[C@@H]3[C@H](O)C[C@@H]4C[C@H](O)CC[C@]4(C)[C@H]3C[C@H](O)[C@]12C)C(=O)N[C@@H](C)C(=O)N[C@@H](Cc1ccccc1)C(=O)N[C@@H](C)C(=O)O [PPI-400] (Cholyl-AVAFA-OH) |  |  | -15 | 
CC(C)C[C@H](NC(=O)CC[C@@H](C)[C@H]1CC[C@H]2[C@@H]3CC[C@@H]4C[C@H](O)CC[C@]4(C)[C@H]3C[C@H](O)[C@]12C)C(=O)N[C@H](C(=O)N[C@@H](Cc1ccccc1)C(=O)N[C@@H](Cc1ccccc1)C(=O)N[C@@H](C)C(=O)O)C(C)C [PPI-424] |  |  |  | % Inucl'n (percent reduction in maximum turbidity) [1]: -114%
CC(C)C[C@@H](NC(=O)CC[C@@H](C)[C@H]1CC[C@H]2[C@@H]3[C@H](O)C[C@@H]4C[C@H](O)CC[C@]4(C)[C@H]3C[C@H](O)[C@]12C)C(=O)N[C@@H](C(=O)N[C@H](Cc1ccccc1)C(=O)N[C@H](Cc1ccccc1)C(=O)N[C@H](C)C(=O)O)C(C)C [PPI-433] |  |  | 27 | 
CC(C)C[C@H](NC(=O)OC(C)(C)C)C(=O)N[C@H](C(=O)N[C@@H](Cc1ccccc1)C(=O)N[C@@H](Cc1ccccc1)C(=O)N[C@@H](C)C(=O)O)C(C)C [PPI-435] |  |  |  | % Inucl'n (percent reduction in maximum turbidity) [1]: -5%; ΔLag (ratio of lag time with test compound to lag time of control) ([1]; Table V, 100 mole % inhibitor relative to Aβ1-40): 3.0
C[C@H](CCC(=O)NCC(=O)N[C@@H](Cc1ccccc1)C(=O)N[C@@H](Cc1ccccc1)C(=O)O)[C@H]1CC[C@H]2[C@@H]3[C@H](O)C[C@@H]4C[C@H](O)CC[C@]4(C)[C@H]3C[C@H](O)[C@]12C [PPI-438] |  |  | 0 | 
AEDVGSNKGAIIGLM [PPI-229, Aβ21-35] | ~ 0% | ~ 1 fold |  | 
HDSGYEVHHQKLVFF [PPI-226, Aβ6-20] | 76% | 1.66 fold |  | 
KLVFFAEDVGSNKGA [PPI-228, Aβ16-30] | 100% | > 4.5 fold |  | 
SNKGAIIGLMVGGVV [PPI-230, Aβ26-40] | ~ 0% | 0.8 fold |  | 
